The record followed here is US6344203B1, “Mimicking peptides in cancer therapy” (The Austin Research Institute, priority 1995, dated 2002).

The subject of data set [1] is MCF-7 (MUC1^+HLA-A*0201^+) cells. The experiment in a line: CTL assay, HLA-A*0201/K^b spleen CTLs on human breast cancer cells. The note with it: HLA-A2 mice. The class given is ex vivo, mouse. As to the method:
FIG. 14(A) Direct CTL assay using p815 MUC1+ (Tm2) or P815 targets. DBA/2 mice were immunised with MFP, or Gal-KLH. FIG. 14(B) CTL assay using HLA-A*0201/K^b spleen CTLs from mice immunised with either mimic or mutated mimic peptides on ^51Cr MCF-7 (MUC1^+HLA-A*0201^+) cells. ^51CrBT20 (MUC1^+HLA-A*0201^−) or MF272 (MUC1^−IILA-A*0201^+) cells were also used as targets and as well as ^51CrMCF-7 cells incubated with cold K562 cells at a 30:1 hot:cold ratio (K562, a myelogenous leukemia cell line). Vertical axis=% lysis; horizontal axis=E:T ratio.
It was next investigated whether the […] peptide (SEQ ID No. 1) be presented by HLA-A2 could immunise for HLA-H2 presented MUC1 peptides. […] Thus the […] peptide (SEQ ID No. 1) gives highly specific immune responses which appear to be directed to the human MUC1 peptide presented by MUC class I molecules.

The next data set has as its system PIEC cells. The experiment in a line: Inhibition of cytotoxicity of NHS and complement on PIEC. Type of data set: cell-based, pig. To be noted: peptide 10 mM to 2.5 mM, NHS 1/25. The source says: FIG. 4. Inhibition of cytotoxicity due to natural antibody and complement by Gal pep 1 (SEQ ID No. 1). Varying concentrations of Gal pep 1 (∘) or CD48 pep 1 (♦) (shown in mM on horizontal axis) were examined in a cytotoxicity assay using NHS (final dilution of 1/25) and PEEC cells as targets.
The binding of lectin or antibody to the surface of pig cells was detected by hemagglutination, cytotoxicity or flow cytometry using the FACSCAN flow cytometer (Becton Dickinson, Mountain View, Calif.).
Human cytotoxic antibodies directly damage pig endothelial cells in a pig-to-human xenograft, therefore the ability of Gal pep 1 (SEQ ID No. 1) to inhibit the cytotoxicity of human antibodies on PIEC in vitro was tested; Gal pep 1 inhibited the cytotoxicity of NHS (10 mM to 2.5 mM), whereas CD48 pep 1 (SEQ ID No. 11) had no effect (FIG. 4).

Data set [2] concerns the target T1, IB4 lectin (Griffonia simplicifolia, UniProt Q8W1R6).
T1 sequence (Q8W1R6 1-247): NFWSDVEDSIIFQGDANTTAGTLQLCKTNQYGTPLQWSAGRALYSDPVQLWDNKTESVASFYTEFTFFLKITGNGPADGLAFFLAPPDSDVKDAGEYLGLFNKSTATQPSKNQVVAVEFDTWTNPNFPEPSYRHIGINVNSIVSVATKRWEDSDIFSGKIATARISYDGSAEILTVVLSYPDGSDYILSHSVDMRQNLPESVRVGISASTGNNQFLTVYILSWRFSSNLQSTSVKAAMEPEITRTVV
The experiment in a line: Elisa: inhibition of IB4 lectin binding to Galα(1,3)Gal-BSA. As to the method: 50 μl of either purified anti-Galα(1,3)Ga IgG or biotinylated IB4 lectin was added to the wells, incubated for 45 minutes at 22° C., washed with PBS-0.05% Tween 20, and 50 μl of the relevant IIRP conjugate added and incubated for a further 45 minutes before washing and the addition of 50 μl of substrate (2,2′ Azino-di-B-ethylbenzthiozoline (Zymed, San Francisco, Calif.)) and reading the OD405.
An Elisa was established to calculate the relative “affinity” of the Gal pep 1 (SEQ ID No. 1) for the IB4 lectin and for human anti-Galα(1,3)Gal antibodies, and to compare these with the affinities for α-galactosyl sugars.
Peptides or carbohydrates were examined cytofluorographically for their ability to inhibit antibody/lectin binding to the cell surface using a FACSCAN flow cytometer (Becton Dickinson, USA)[20]: 25 μl of inhibitor was mixed with 25 μl of antibody of lectin and incubated at 22° C. for 3 hours (peptides) or at 4° C. for 16 hours (carbohydrates)[14], prior to addition of appropriate targets. An Elisa assay was used to calculate the relative affinities of the sugars or the peptides for both IB4 lectin and antibodies, and were defined as the molar concentration of inhibitor giving 50% inhibition of the maximal binding of lectin or antibody.

The target of data set [3] is T1, IB4 lectin. The experiment in a line: biochemical.

No end group written: not given here.

DLHWASWV: in data set [1], the “CTL lysis of human breast cancer cell lines” value is “specifically lyse human breast cancer cell lines”.

For orientation: IC50 means the midpoint of a concentration-inhibition curve. Lower therefore signals greater potency. As to DAHWESWL [Gal pep 1], the “Inhibition of cytotoxicity of NHS on PIEC” value with PIEC cells is “inhibited”. In addition, the IC50 on IB4 lectin [2] was determined as 300 µM; against IB4 lectin [3] it was 5000 µM.
